The record followed here is patent US9216968B2, “Heterocyclic derivative and pharmaceutical drug” (NIPPON SHINYAKU CO., LTD., priority 2011, dated 2015).

Structures can show the parent of a compound that is named as a salt.

The test system of assay [1] is A549 cells. As to the kind of experiment: Inhibition of PGE2 production in A549 cell (IL-1β stimulated). Format: cell-based, human. The note with it: Homo sapiens, A549, 24 h, IL-1β 5 ng/well, PGE2 in culture medium. A digest of the protocol:
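After IL-1β (5 ng/well) stimulation for 24 h at 37 °C, following a 60-min compound pretreatment in RPMI with 3% FBS, medium PGE2 (HTRF) and PGF2α (EIA) from human A549 cells were quantified. 100% activity set as IL-1β-induced minus basal production; IC50 calculated.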

Assay [2] addresses human mPGES-1 (Homo sapiens (Human), UniProt O14684). The experiment in a line: mPGES-1 inhibiting activity (microsome fractions, PGE2 by HTRF). The note with it: microsomes from CHO-K1 cells transfected with human mPGES-1; PGH2 1 μM, 4° C., 60 seconds; read-out: mPGES-1 Inhibition IC50. Format: biochemical. An outline of the steps:
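PGE2 formation read by HTRF after 60 s at 4 °C with 1 μM PGH2 substrate, following 20 min compound preincubation (1% DMSO) with human mPGES-1 microsomes from transfected CHO-K1 cells. Buffer: potassium phosphate, reduced glutathione, pH 7.4; IC50 from activity relative to enzyme-free blank.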
For orientation: In TR-FRET formats the signal depends on donor and acceptor labels being close together.

Chain of human mPGES-1 (O14684 whole entry): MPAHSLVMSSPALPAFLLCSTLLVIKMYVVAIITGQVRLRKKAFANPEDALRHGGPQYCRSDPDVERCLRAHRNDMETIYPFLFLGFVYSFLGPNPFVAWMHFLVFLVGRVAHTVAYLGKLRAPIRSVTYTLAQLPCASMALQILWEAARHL

Consider `COC(C)(C)CNc1nc2c(C(=O)Nc3cccc(Cl)c3C)cc(NC(=O)c3c(F)cccc3Cl)cc2[nH]1` [Example 197, 6-{[(2-Chloro-6-fluorophenyl)carbonyl]amino}-N-(3-chloro-2-methylphenyl)-2-[(2-methoxy-2-methylpropyl)amino]-1H-benzimidazole-4-carboxamide hydrochloride], for which the IC50 in assay [1] turned out to be 34.4 nM; in assay [2], 5.2 nM.
For the molecule `COCc1nc2c(C(=O)Nc3cccc(Cl)c3C)cc(NC(=O)c3ccccc3S(C)(=O)=O)cc2[nH]1` [Example 212, N-(3-Chloro-2-methylphenyl)-2-(methoxymethyl)-6-({[2-(methylsulfonyl)phenyl]carbonyl}amino)-1H-benzimidazole-4-carboxamide], the IC50 in assay [1] turned out to be 305 nM; in assay [2], 42.3 nM.
Regarding `COCCNc1nc2c(C(=O)Nc3cccc(Cl)c3C)cc(NC(=O)c3ccccc3C(F)(F)F)cc2[nH]1` [Example 136, N-(3-Chloro-2-methylphenyl)-2-[(2-methoxyethyl)amino]-6-({[2-(trifluoromethyl)phenyl]carbonyl}amino)-1H-benzimidazole-4-carboxamide hydrochloride], the IC50 in assay [1] turned out to be 61.9 nM; in assay [2], 2.4 nM.
In the same order, the values of `COCC(C)(C)c1nc2c(C(=O)Nc3cccc(Cl)c3C)cc(NC(=O)c3ccccc3C(F)(F)F)cc2[nH]1` [Example 75, N-(3-Chloro-2-methylphenyl)-2-(1-methoxy-2-methylpropan-2-yl)-6-({[2-(trifluoromethyl)phenyl]carbonyl}amino)-1H-benzimidazole-4-carboxamide hydrochloride] are 19.7 nM and 31.7 nM.
As to `Cc1ccc(NC(=O)c2cc(NC(=O)c3cc(Cl)ccc3Cl)cc3[nH]c(C4CC4)nc23)cc1Cl` [Example 209, N-(3-Chloro-4-methylphenyl)-2-cyclopropyl-6-{[(2,5-dichlorophenyl)carbonyl]amino}-1H-benzimidazole-4-carboxamide hydrochloride], the values for the IC50 in assay [1] and in assay [2] were 10.3 nM and 1 nM, respectively.
As to `Cc1c(Cl)cccc1NC(=O)c1cc(NC(=O)c2ccccc2C(F)(F)F)cc2c1ncn2C` [Example 46, N-(3-Chloro-2-methylphenyl)-1-methyl-6-({[2-(trifluoromethyl)phenyl]carbonyl}amino)-1H-benzimidazole-4-carboxamide], the 50% inhibitory concentration (IC50) in assay [1] worked out at 231 nM; in assay [2] it was 26 nM.
Turning to `Cc1nc2c(C(=O)NCc3ccccc3C(F)(F)F)cc(NC(=O)c3ccccc3C(F)(F)F)cc2o1` [Example 53, 2-Methyl-N-[2-(trifluoromethyl)benzyl]-6-({[2-(trifluoromethyl)phenyl]carbonyl}amino)-1,3-benzoxazole-4-carboxamide], the IC50 was 280 nM in assay [1] and 179 nM in assay [2].
For `COCc1nc2c(C(=O)Nc3cccc(Cl)c3C)cc(NC(=O)c3ccncc3Cl)cc2[nH]1` [Example 245, N-(3-Chloro-2-methylphenyl)-6-{[(3-chloropyridin-4-yl)carbonyl]amino}-2-(methoxymethyl)-1H-benzimidazole-4-carboxamide hydrochloride], the IC50 in assay [1] stood at 166 nM; in assay [2] it was 25.7 nM.
Consider `Cc1c(Cl)cccc1NC(=O)c1cc(NC(=O)c2ccccc2C(F)(F)F)cc2[nH]c(NCC(C)(C)CN(C)C)nc12` [Example 154, N-(3-Chloro-2-methylphenyl)-2-{[3-(dimethylamino)-2,2-dimethylpropyl]amino}-6-({[2-(trifluoromethyl)phenyl]carbonyl}amino)-1H-benzimidazole-4-carboxamide hydrochloride], for which the IC50 in assay [1] was 64.4 nM; in assay [2] it was 20 nM.
For `COCc1nc2c(C(=O)Nc3cccc(Cl)c3C)cc(NC(=O)c3c(Cl)cncc3Cl)cc2[nH]1` [Example 246, N-(3-Chloro-2-methylphenyl)-6-{[(3,5-dichloropyridin-4-yl)carbonyl]amino}-2-(methoxymethyl)-1H-benzimidazole-4-carboxamide hydrochloride], the IC50 in assay [1] turned out to be 132 nM; in assay [2] it was 35.9 nM.

Usually IC50 stands for the concentration that gives 50% inhibition.
